# Measurements as given in US20110033393A1, “Hydrazone Compounds and Their Use” (priority 2009, published 2011).
# Target: T1, human TRPM5 ion channel (Homo sapiens, UniProt Q9NZQ8)
# T1 sequence (Q9NZQ8 1-1165): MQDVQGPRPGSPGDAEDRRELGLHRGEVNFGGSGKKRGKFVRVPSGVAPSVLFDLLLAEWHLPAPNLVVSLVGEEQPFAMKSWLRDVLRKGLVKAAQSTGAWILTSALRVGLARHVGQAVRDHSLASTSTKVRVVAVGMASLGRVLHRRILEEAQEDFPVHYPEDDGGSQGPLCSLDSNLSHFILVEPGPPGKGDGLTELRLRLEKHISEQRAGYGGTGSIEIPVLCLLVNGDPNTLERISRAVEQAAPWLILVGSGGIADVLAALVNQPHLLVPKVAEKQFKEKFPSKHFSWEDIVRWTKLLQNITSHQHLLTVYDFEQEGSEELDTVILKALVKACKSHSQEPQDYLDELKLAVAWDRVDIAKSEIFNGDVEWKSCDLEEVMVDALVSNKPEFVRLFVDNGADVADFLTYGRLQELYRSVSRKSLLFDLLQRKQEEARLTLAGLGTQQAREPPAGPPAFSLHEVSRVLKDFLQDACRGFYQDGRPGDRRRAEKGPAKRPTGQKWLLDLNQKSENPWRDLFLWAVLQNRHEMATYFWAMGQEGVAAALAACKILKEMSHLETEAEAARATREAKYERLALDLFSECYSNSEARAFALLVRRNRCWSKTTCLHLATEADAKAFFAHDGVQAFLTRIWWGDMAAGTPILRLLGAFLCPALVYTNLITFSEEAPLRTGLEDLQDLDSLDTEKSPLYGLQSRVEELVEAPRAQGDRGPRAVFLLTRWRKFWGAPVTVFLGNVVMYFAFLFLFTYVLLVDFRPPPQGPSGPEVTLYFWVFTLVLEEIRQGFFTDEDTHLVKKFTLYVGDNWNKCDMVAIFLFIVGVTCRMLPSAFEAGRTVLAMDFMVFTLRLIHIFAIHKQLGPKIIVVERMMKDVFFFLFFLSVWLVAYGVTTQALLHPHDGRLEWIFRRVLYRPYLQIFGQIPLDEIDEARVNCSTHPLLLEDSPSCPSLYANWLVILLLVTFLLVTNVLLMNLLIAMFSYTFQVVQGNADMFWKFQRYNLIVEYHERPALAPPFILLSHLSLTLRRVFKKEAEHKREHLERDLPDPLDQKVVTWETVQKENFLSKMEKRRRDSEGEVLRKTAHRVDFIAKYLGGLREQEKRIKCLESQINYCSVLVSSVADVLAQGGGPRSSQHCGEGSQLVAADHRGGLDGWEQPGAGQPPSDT
# Test: FLIPR-based assay for membrane potential and calcium mobilization (TRPM5 inhibiting activity)
# Type: cell-based
# Details: live cells, 30° C., read-out: hTrpM5 IC50
# Procedure: The activity of compounds of the present invention on human TRPM5 ion channel was measured using the FLIPR-based (fluorescent imaging plate reader) assay for membrane potential and calcium mobilization described in U.S. Patent Application Publication No. 2008/0249189 A1 in live cells, wherein the assay is performed at 30° C. Determinations of affinity and efficacy were derived from measurements of TRPM5 activity over a range of compound concentrations. The concentration range was achieved by 10 serial dilutions (either 2-fold or 3-fold decrements) from a maximum concentration of no greater that 100 μM. Curver fitting was performed on the resulting data to yield concentration-effect functions, from which the half-maximal inhibitory concentration (IC50) was derived for all the tested compounds. The IC50 values were considered to be accurate reflections of affinity between the compounds and TRPM5.
# Representative compounds of the present invention have been tested in the FLIPR assay for TRPM5 inhibiting activity, which is described in detail above.
row,IC50,SMILES
1,1500 nM,"COc1ccc(/C=N/NC(=O)CCn2cc(CN(C)C)c3c(Cl)cccc32)cc1OC [Example 47, 3-(4-Chloro-3-((dimethylamino)methyl)-1H-indol-1-yl)-N′-(3,4-dimethoxybenzylidene)propanehydrazide]"
2,9 nM,"COc1ccc(/C=N/NC(=O)CCc2cn(C)c3c(C)cccc23)cc1OC [Example 48, N′-(3,4-Dimethoxybenzylidene)-3-(1,7-dimethyl-1H-indol-3-yl)propanehydrazide]"
3,1.3 nM,"COc1ccc(/C=N/NC(=O)CCn2cc(Cl)c3c(C)cccc32)cc1OC [Example 49, 3-(3-Chloro-4-methyl-1H-indol-1-yl)-N′-(3,4-dimethoxybenzylidene)propanehydrazide]"
4,260 nM,"COc1ccc(/C=N/NC(=O)CCn2cc(C)c3c(CO)cccc32)cc1OC [Example 50, N′-(3,4-Dimethoxybenzylidene)-3-(4-(hydroxymethyl)-3-methyl-1H-indol-1-yl)propanehydrazide]"
5,1700 nM,"COc1ccc(/C=N/NC(=O)C(C)S(=O)(=O)c2cccc(Cl)c2)cc1OC (centres unmarked) [Example 51, 2-(3-Chlorophenylsulfonyl)-N′-(3,4-dimethoxybenzylidene)propanehydrazide]"
6,2000 nM,"COc1cc(C)c2cc(/C=N/NC(=O)CCn3cc(C)c4ccccc43)ccc2n1 [Example 52, N′-((2-Methoxy-4-methylquinolin-6-yl)methylene)-3-(3-methyl-1H-indol-1-yl)propanehydrazide]"
7,> 30000 nM,"COc1cnc(/C=N/NC(=O)C(C)Sc2cccc(Cl)c2)cc1OC (centres unmarked) [Example 53, 2-(3-Chlorophenylthio)-N′-((4,5-dimethoxypyridin-2-yl)methylene)propanehydrazide]"
8,170 nM,"COc1ccc(/C=N/NC(=O)CCn2ccc3ccccc32)cc1OC [Example 54, N′-(3,4-dimethoxybenzylidene)-3-(1H-indol-1-yl)propanehydrazide]"
9,660 nM,"COc1ccc(/C=N/NC(=O)CSc2ccccc2)cc1OC [Example 55, N′-(3,4-dimethoxybenzylidene)-2-(phenylthio)acetohydrazide]"
10,17 nM,"COc1ccc(/C=N/NC(=O)CCn2cc(C)c3ccccc32)cc1OC [Example 56, N′-(3,4-dimethoxybenzylidene)-3-(3-methyl-1H-indol-1-yl)propanehydrazide]"
11,12 nM,"COc1ccc(/C=N/NC(=O)CCn2ccc3c(C)cccc32)cc1OC [Example 57, N′-(3,4-dimethoxybenzylidene)-3-(4-methyl-1H-indol-1-yl)propanehydrazide]"
12,180 nM,"Cc1cn(CCC(=O)N/N=C/c2ccc3c(c2)OCCCO3)c2ccccc12 [Example 58, N′-((3,4-dihydro-2H-benzo[b][1,4]di-oxepin-7-yl)methylene)-3-(3-methyl-1H-indol-1-yl)propanehydrazide]"
13,340 nM,"Cc1cn(CCC(=O)N/N=C/c2ccc3ncccc3c2)c2ccccc12 [Example 59, 3-(3-methyl-1H-indol-1-yl)-N′-(quinolin-6-ylmethylene)-propanehydrazide]"
14,750 nM,"Cc1cn(CCC(=O)N/N=C/c2ccc3c(c2)OCCN3C)c2ccccc12 [Example 60, 3-(3-methyl-1H-indol-1-yl)-N′-((4-methyl-3,4-dihydro-2H-benzo[b][1,4]-oxazin-7-yl)methylene)propanehydrazide]"
15,210 nM,"Cc1cnc2ccc(/C=N/NC(=O)CCn3cc(C)c4ccccc43)cc2c1 [Example 61, 3-(3-methyl-1H-indol-1-yl)-N′-((3-methylquinolin-6-yl)methylene)-propanehydrazide]"
16,370 nM,"Cc1ccnc2ccc(/C=N/NC(=O)CCn3cc(C)c4ccccc43)cc12 [Example 62, 3-(3-methyl-1H-indol-1-yl)-N′-((4-methylquinolin-6-yl)methylene)-propanehydrazide]"
17,120 nM,"COc1ccnc2ccc(/C=N/NC(=O)CCn3cc(C)c4ccccc43)cc12 [Example 63, N′-((4-methoxyquinolin-6-yl)methylene)-3-(3-methyl-1H-indol-1-yl)propanehydrazide]"
18,5 nM,"Cc1cc(/C=N/NC(=O)CCn2cc(C)c3c(C)cccc32)cc2cccnc12 [Example 64, 3-(3,4-dimethyl-1H-indol-1-yl)-N′-((8-methylquinolin-6-yl)-methylene)propanehydrazide]"
19,200 nM,"COc1ccc(/C=N/NC(=O)NCCc2ccccc2)cc1OC [Example 65, 2-(3,4-dimethoxybenzylidene)-N-phenethylhydrazinecarboxamide]"
20,40 nM,"COc1ccc(/C=N/NC(=O)CSc2cccc(Cl)c2)cc1OC [Example 66, 2-(3-chlorophenylthio)-N′-(3,4-dimethoxybenzylidene)acetohydrazide]"
21,> 30000 nM,"COc1ccc(/C=N/NC(=O)CSc2cccc(CO)c2)cc1OC [Example 67, N′-(3,4-dimethoxybenzylidene)-2-(3-(hydroxymethyl)phenylthio)-acetohydrazide]"
22,> 30000 nM,"Cc1cn(CCC(=O)N/N=C/c2ccc3cccnc3c2)c2ccccc12 [Example 68, 3-(3-methyl-1H-indol-1-yl)-N′-(quinolin-7-ylmethylene)-propanehydrazide]"
23,> 30000 nM,"Cc1ccc2cc(/C=N/NC(=O)CCn3cc(C)c4ccccc43)ccc2n1 [Example 69, 3-(3-methyl-1H-indol-1-yl)-N′-((2-methylquinolin-6-yl)methylene)-propanehydrazide]"
